Measured values reported in US12612386B2, “Heteroaryl-triazole compounds as pesticides” (Bayer Aktiengesellschaft, priority 2020, dated 2026).

How the values were obtained:
Assay type in all cases: in vivo
[1] = test system: fall armyworm larvae (Spodoptera frugiperda); assay: whole plant or invertebrate; conditions: 168 h
In short: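 Percent kill of Spodoptera frugiperda caterpillars, read 7 days after infestation of dried, spray-treated Zea mays leaf pieces. Spray preparation: compound in acetone plus dimethylformamide, diluted with emulsifier-containing water.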

[2] = test system: larvae of the banded cucumber beetle (Diabrotica balteata); assay: Diabrotica balteata spray test; conditions: 168 h, 100 g/ha (=32 μg/well), after 7 days, read-out: efficacy (seedling growth)
In short: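 Efficacy is seedling survival after 7 days, where 0% means no seedlings grew and 100% means growth equal to untreated, uninfested controls. Wheat seedlings, germinated on agar for 1 day, were sprayed with the aqueous emulsifier dilution (acetone/DMF solvent) and then exposed to 10–20 banded cucumber beetle larvae.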

[3] = test system: adult mosquitoes Aedes aegypti strain MONHEIM; assay: Aedes aegypti test (AEDSAE surface treatment & contact assay); conditions: 24 hours after contact, read-out: efficacy (mortality); for mortality at 4 mg/m2: surface concentration 4 mg/m^2, 30 min exposure; for mortality at 20 mg/m2: surface concentration 20 mg/m^2, 30 min exposure
In short: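 Compound in acetone containing 2000 ppm rapeseed oil methyl ester applied to a glazed tile and dried; adult mosquitoes exposed on the treated surface for 30 minutes. Percent mortality scored 24 hours after contact (100% = all dead, 0% = none dead).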

[4] = test system: adult flies Musca domestica strain WHO-N; assay: Musca domestica test (MUSCDO surface treatment & contact assay); conditions: 24 hours after contact, read-out: efficacy (mortality); for mortality at 20 mg/m2: surface concentration 20 mg/m^2, 30 min exposure; for mortality at 4 mg/m2: surface concentration 4 mg/m^2, 30 min exposure
Protocol: Musca domestica Test (MUSCDO Surface Treatment & Contact Assay)
(§1) Solvent: Aceton+2000 ppm rapeseed oil methyl ester (RME)
(§2) This solution is pipetted onto a glazed tile and after evaporation of the acetone, adult flies of the species Musca domestica strain WHO-N are placed onto the dried surface. The exposure time is 30 minutes. Mortality in percent (%) is determined 24 hours after contact of the insects to the treated surface. 100% mortality means that all tested insects are dead, whereas 0% means that no insect died.

[5] = test system: adult mosquitoes Culex quinquefasciatus strain P00; assay: Culex quinquefasciatus test (CULXFA surface treatment & contact assay); conditions: 24 hours after contact, read-out: efficacy (mortality); for mortality at 20 mg/m2: surface concentration 20 mg/m^2, 30 min exposure; for mortality at 4 mg/m2: surface concentration 4 mg/m^2, 30 min exposure
Protocol: Culex quinquefasciatus Test (CULXFA Surface Treatment & Contact Assay)
as §1
as §2, with “mosquitoes” for “flies”, “Culex quinquefasciatus” for “Musca domestica”, “P00” for “WHO-N”

[6] = test system: green peach aphid (Myzus persicae); assay: Myzus persicae spray test (MYZUPE); conditions: 120 h, 100 g/ha, after 5 days
In short: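 Percent aphid kill, with 0% meaning none killed, was read 5 days after spraying. The preparation (acetone–DMF solvent, water with 1000 ppm emulsifier) was applied to Brassica pekinensis leaf disks carrying mixed-instar green peach aphids.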

[7] = test system: adult animals Blattella germanica strain PAULINIA; assay: Blattella germanica test (BLTTGE surface treatment & contact assay); conditions: 24 hours after contact, read-out: efficacy (mortality); for mortality at 4 mg/m2: surface concentration 4 mg/m^2, 30 min exposure; for mortality at 20 mg/m2: surface concentration 20 mg/m^2, 30 min exposure
Protocol: Blattella germanica Test (BLTTGE Surface Treatment & Contact Assay)
as §1
In order to produce a sufficient, active ingredient containing solution it is necessary to solve the test compound in the solvent-mix (acetone at 2 mg/ml/RME 2000 ppm). This solution is pipetted onto a glazed tile and after evaporation of the acetone, adult animals of the species Blattella germanica strain PAULINIA are placed onto the dried surface. The exposure time is 30 minutes.
Mortality in percent (%) is determined 24 hours after contact of the insects to the treated surface. 100% mortality means that all tested insects are dead, whereas 0% means that no insect died.

[8] = test system: larvae of the southern green stink bug (Nezara viridula); assay: whole plant or invertebrate; conditions: 96 h
In short: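 Percent mortality of southern green stink bug larvae was recorded at day 4, with 100% meaning all dead. The larvae were placed on barley sprayed with the test solution. That solution was prepared from acetone/dimethylformamide concentrate diluted in emulsifier-containing water (1000 ppm).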

[9] = test system: adult cat fleas (Ctenocephalides felis); assay: Ctenocephalides felis in-vitro contact test, adult cat flea; conditions: 5 μg/cm^2 (=500 g/ha), after 48 hours
Protocol: Ctenocephalides felis—In-Vitro Contact Tests Adult Cat Flea
(§3) 9 mg compound is solved in 1 mL acetone and diluted with acetone to the desired concentration. 250 μL of the test solution is filled in 25 mL glass test tubes and homogeneously distributed on the inner walls by rotation and tilting on a shaking device (2 h at 30 rpm). With a compound concentration of 900 ppm, an inner surface of 44.7 cm^2 and a homogeneous distribution, a dose of 5 μg/cm^2 is achieved.
(§4) After the solvent has evaporated, each test tube is filled with 5-10 adult cat fleas (Ctenocephalides felis), closed with a perforated lid and incubated in a lying position at room temperature and relative humidity. After 48 hours efficacy is determined. The fleas are patted on the ground of the tubes and are incubated on a heating plate at 45-50° C. for at most 5 minutes. Immotile or uncoordinated moving fleas, which are not able to escape the heat by climbing upwards, are marked as dead or moribund.
An efficacy of 100% means all fleas are dead or moribund; 0% means no fleas are dead or moribund.

[10] = test system: cattle tick larvae (Rhipicephalus microplus), strain Parkhurst, resistant against synthetic pyrethroids; assay: Rhipicephalus (Boophilus) microplus in-vitro contact test, larval cattle tick; conditions: 5 μg/cm^2 (=500 g/ha), after 48 hours
In short: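 Larvae (20–50 per tube) were exposed for 48 h at 27 °C and 85% relative humidity to dried acetone residues lining glass tubes, where 900 ppm corresponds to 5 μg/cm^2. Loss of negative geotaxis defined dead or moribund larvae, expressed as percent efficacy.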

[11] = test system: adult brown dog ticks (Rhipicephalus sanguineus); assay: Rhipicephalus sanguineus in-vitro contact test, adult brown dog ticks; conditions: 48 h, read-out: efficacy (ticks dead or moribund)
Protocol: Rhipicephalus sanguineus—In-Vitro Contact Tests with Adult Brown Dog Ticks
as §3
as §4, with “brown dog ticks (Rhipicephalus sanguineus),” for “cat fleas (Ctenocephalides felis),”, “ticks” for “fleas”, “ticks,” for “fleas,”
An efficacy of 100% means all ticks are dead or moribund; 0% means no ticks are dead or moribund.

[12] = test system: brown planthopper (Nilaparvata lugens); assay: Nilaparvata lugens spray test; conditions: 96 h
In short: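 Rice plants (Oryza sativa) sprayed with compound formulated in acetone/DMF with alkylarylpolyglycol ether emulsifier (1000 ppm in diluting water), then infested with planthoppers. Mortality (%) scored after 4 days; 100% = all insects killed, 0% = none killed.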

| Compound | mortality at 100 g/ha [1] [%] | pest or weed control at 32 µg/disc, 100 g/ha [2] [%] | mortality at 4 mg/m2 [3] [%] | mortality at 20 mg/m2 [3] [%] | mortality at 20 mg/m2 [4] [%] | mortality at 20 mg/m2 [5] [%] | mortality at 100 g/ha [6] [%] | mortality at 4 mg/m2 [7] [%] | mortality at 20 mg/m2 [7] [%] | mortality at 100 g/ha [8] [%] | mortality at 500 g/ha [8] [%] | efficacy (fleas dead or moribund) [9] [%] | efficacy (larvae dead or moribund) [10] [%] | mortality at 4 mg/m2 [4] [%] | mortality at 4 mg/m2 [5] [%] | pest or weed control at 5 µg/cm2, 500 g/ha [11] [%] | mortality at 500 g/ha [12] [%] |
| --- | --- | --- | --- | --- | --- | --- | --- | --- | --- | --- | --- | --- | --- | --- | --- | --- | --- |
| C[C@H](NC(=O)c1cc(OC(F)(F)F)cc(S(=O)(=O)C(F)F)c1)c1ncnn1-c1cc(C#N)ncn1 [I-20] | 100 | 100 | 80 to 100 | 80 to 100 | 80 to 100 | 80 to 100 | 100 | – | – | – | – | – | – | – | – | – | – |
| C[C@H](NC(=O)c1cc(Br)cc(OC(F)(F)F)c1)c1ncnn1-c1cc(C(N)=O)ncn1 [I-21] | 100 | 100 | 80 to 100 | 80 to 100 | 80 to 100 | – | 90 | 80 to 100 | 80 to 100 | 100 | 100 | 100 | 100 | 80 to 100 | 80 to 100 | 100 | – |
| C[C@H](NC(=O)c1cc(OC(F)(F)F)cc(C2(C#N)CC2)c1)c1nc(C2CC2)nn1-c1cc(C(N)=O)ncn1 [I-33] | 100 | 100 | 80 to 100 | 80 to 100 | 80 to 100 | 80 to 100 | – | – | – | – | – | 100 | 100 | 80 to 100 | 80 to 100 | – | 100 |
| C[C@H](NC(=O)c1cc(OC(F)(F)F)cc(OC(F)(F)F)c1)c1ncnn1-c1cc(C(N)=O)ncn1 [I-102] | 100 | 100 | 80 to 100 | 80 to 100 | 80 to 100 | 80 to 100 | 100 | 80 to 100 | 80 to 100 | – | 100 | 100 | 100 | 80 to 100 | 80 to 100 | 80 | 90 |
| CNC(=O)c1cc(-n2ncnc2[C@H](C)NC(=O)c2cc(Br)cc(OC(F)(F)F)c2)ncn1 [I-74] | 100 | 80 | 80 to 100 | 80 to 100 | 80 to 100 | 80 to 100 | 90 | 80 to 100 | 80 to 100 | – | 100 | 100 | 100 | 80 to 100 | 80 to 100 | 100 | 100 |
| CNC(=O)c1cc(-n2ncnc2[C@H](C)NC(=O)c2cc(OC(F)(F)F)cc(S(=O)(=O)C(F)(F)F)c2)ncn1 [I-90] | 100 | 100 | 80 to 100 | 80 to 100 | 80 to 100 | 80 to 100 | 100 | – | 80 to 100 | – | 100 | – | – | 80 to 100 | 80 to 100 | – | 90 |
| CNC(=O)c1cc(-n2ncnc2[C@H](C)NC(=O)c2cc(Cl)cc(OC(F)(F)F)c2)ncn1 [I-73] | 100 | 100 | 80 to 100 | 80 to 100 | 80 to 100 | 80 to 100 | 70 | 80 to 100 | 80 to 100 | – | 100 | 100 | 100 | 80 to 100 | 80 to 100 | 100 | 100 |
| C[C@H](NC(=O)c1cc(OC(F)F)cc(OC(F)F)c1)c1ncnn1-c1cc(C(N)=O)ncn1 [I-93] | 100 | 100 | 80 to 100 | 80 to 100 | 80 to 100 | 80 to 100 | 100 | 80 to 100 | 80 to 100 | – | 100 | – | – | 80 to 100 | 80 to 100 | – | 100 |
| C[C@H](NC(=O)c1cc(Br)cc(OC(F)F)c1)c1ncnn1-c1cc(C(N)=O)ncn1 [I-51] | 100 | 100 | 80 to 100 | 80 to 100 | 80 to 100 | 80 to 100 | 90 | 80 to 100 | 80 to 100 | 100 | 100 | 100 | 100 | 80 to 100 | 80 to 100 | 100 | 100 |
| C[C@H](NC(=O)c1cc(OC(F)(F)F)cc(OC(F)(F)F)c1)c1nc(C2CC2)nn1-c1cc(C(N)=O)ncn1 [I-36] | 100 | 100 | – | 80 to 100 | 80 to 100 | – | – | – | – | – | – | – | 100 | 80 to 100 | – | 80 | – |
